Results published in PubChem BioAssay AID256 (DTP/NCI, 2004).
Values joined by “and” are separate entries in the source; they are usually repeats but may differ in a detail not shown here. Identical values can stand only once. Inconclusive results and toxic doses are left out. How the source made its calls: active means survival T/C of 150% or more; inactive means T/C below 125% in these data.

System: CD2F1 mice, L1210 leukemia ip, survival T/C
Assay: NCI In Vivo Anticancer Drug Screen. Data for tumor model L1210 Leukemia (intraperitoneal) in CD2F1 (CDF1) mice
Conditions: higher = longer survival
In short: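 Ratio T/C, where T is the treated-group value and C the vehicle-dosed control value, from mice implanted with a transplantable tumor.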

[1] = endpoint: mean survival time, dose: 100.0 mg/kg/injection, schedule: Q04DX003 (ip), vehicle: saline with Tween-80

Measured: T/C

Cc1ccc(Cl)cc1[NH-].Cc1ccc(Cl)cc1[NH-].[Cl][Pt+2][Cl]
inactive: endpoint: mean survival time, dose: 25.0 mg/kg/injection, schedule: Q04DX003 (ip), vehicle: saline with Tween-80 100 % of control | endpoint: mean survival time, dose: 50.0 mg/kg/injection, schedule: Q04DX003 (ip), vehicle: saline with Tween-80 95 % of control | [1] 97 % of control | endpoint: mean survival time, dose: 200.0 mg/kg/injection, schedule: Q04DX003 (ip), vehicle: saline with Tween-80 101 % of control

CCOC(=O)C1CC2(CC(C)C1=O)OCCO2 (configuration not stated)
inactive: endpoint: mean survival time, dose: 100.0 mg/kg/injection, schedule: Q04DX003 (ip), vehicle: alcohol 97 % of control | endpoint: mean survival time, dose: 200.0 mg/kg/injection, schedule: Q04DX003 (ip), vehicle: alcohol 97 % of control | endpoint: mean survival time, dose: 400.0 mg/kg/injection, schedule: Q04DX003 (ip), vehicle: alcohol 92 % of control

C=C1CC23CC[C@H]4[C@@](C)(CCC[C@@]4(C)C(=O)O)[C@@H]2CC[C@]1(OC1OC(COC(C)=O)C(OC(C)=O)C(OC(C)=O)C1OC1OC(COC(C)=O)C(OC(C)=O)C(OC(C)=O)C1OC(C)=O)C3 (some centres not stated)
inactive: endpoint: mean survival time, dose: 100.0 mg/kg/injection, schedule: Q04DX002 (ip), vehicle: saline with Tween-80 93 % of control | endpoint: mean survival time, dose: 200.0 mg/kg/injection, schedule: Q04DX002 (ip), vehicle: saline with Tween-80 89 % of control | endpoint: mean survival time, dose: 400.0 mg/kg/injection, schedule: Q04DX002 (ip), vehicle: saline with Tween-80 96 % of control

O=C(CNC(=O)NCc1ccco1)N/N=C/c1c(O)ccc2ccccc12
inactive: endpoint: mean survival time, dose: 50.0 mg/kg/injection, schedule: Q01DX009 (ip), vehicle: saline with Tween-80 93 % of control | endpoint: mean survival time, dose: 100.0 mg/kg/injection, schedule: Q01DX009 (ip), vehicle: saline with Tween-80 97 % of control | endpoint: mean survival time, dose: 200.0 mg/kg/injection, schedule: Q01DX009 (ip), vehicle: saline with Tween-80 101 % of control

CC1C=CCC2C(=O)OC(=O)C12 (configuration not stated)
inactive: endpoint: mean survival time, dose: 100.0 mg/kg/injection, schedule: Q04DX003 (ip), vehicle: saline 94 % of control | endpoint: mean survival time, dose: 200.0 mg/kg/injection, schedule: Q04DX003 (ip), vehicle: saline 95 % of control | endpoint: mean survival time, dose: 400.0 mg/kg/injection, schedule: Q04DX003 (ip), vehicle: saline 101 % of control

Nc1nc(-c2ccccc2)cs1
inactive: [1] 105 % of control

C1=CC=CN(c2ccccc2)C=C1
inactive: endpoint: mean survival time, dose: 100.0 mg/kg/injection, schedule: Q04DX003 (ip), vehicle: other 106 % of control | endpoint: mean survival time, dose: 200.0 mg/kg/injection, schedule: Q04DX003 (ip), vehicle: other 95 % of control | endpoint: mean survival time, dose: 400.0 mg/kg/injection, schedule: Q04DX003 (ip), vehicle: other 97 % of control

Cc1ccc([NH-])cc1C.Cc1ccc([NH-])cc1C.[Cl][Pt+2][Cl]
inactive: endpoint: mean survival time, dose: 3.12 mg/kg/injection, schedule: Q04DX003 (ip), vehicle: distilled water + Tween-80 103 % of control | endpoint: mean survival time, dose: 6.25 mg/kg/injection, schedule: Q04DX003 (ip), vehicle: distilled water + Tween-80 103 % of control | endpoint: mean survival time, dose: 12.5 mg/kg/injection, schedule: Q04DX003 (ip), vehicle: distilled water + Tween-80 108 % of control | endpoint: mean survival time, dose: 25.0 mg/kg/injection, schedule: Q04DX003 (ip), vehicle: distilled water + Tween-80 106 % of control | endpoint: mean survival time, dose: 50.0 mg/kg/injection, schedule: Q04DX003 (ip), vehicle: distilled water + Tween-80 108 % of control

CCOC(=O)c1cc(C=O)nc2c(Cl)cc(Cl)cc12
inactive: [1] 96 % of control | endpoint: mean survival time, dose: 400.0 mg/kg/injection, schedule: Q04DX003 (ip), vehicle: saline with Tween-80 98 % of control

Cl/C(=N\Nc1ccccc1)c1ccccc1
inactive: endpoint: mean survival time, dose: 12.5 mg/kg/injection, schedule: Q01DX009 (ip), vehicle: Klucel (hydroxypropylcellulose) (HPC) 102 % of control | endpoint: mean survival time, dose: 25.0 mg/kg/injection, schedule: Q01DX009 (ip), vehicle: Klucel (hydroxypropylcellulose) (HPC) 98 % of control | endpoint: mean survival time, dose: 50.0 mg/kg/injection, schedule: Q01DX009 (ip), vehicle: Klucel (hydroxypropylcellulose) (HPC) 88 % of control

CC(Br)(C(=O)O)C1CCCCC1 (configuration not stated)
inactive: endpoint: mean survival time, dose: 100.0 mg/kg/injection, schedule: Q01DX001 (ip), vehicle: saline with Tween-80 93 % of control | endpoint: mean survival time, dose: 200.0 mg/kg/injection, schedule: Q01DX001 (ip), vehicle: saline with Tween-80 96 % of control | endpoint: mean survival time, dose: 400.0 mg/kg/injection, schedule: Q01DX001 (ip), vehicle: saline with Tween-80 99 % of control

O=C(O)CC(=O)O.[NH-]CC(O)C[N-]CC(O)CN.[Pt+2] (configuration not stated)
inactive: endpoint: median survival time, dose: 10.0 mg/kg/injection, schedule: Q04DX003 (ip), vehicle: distilled water + Tween-80 101 % of control | endpoint: median survival time, dose: 20.0 mg/kg/injection, schedule: Q04DX003 (ip), vehicle: distilled water + Tween-80 101 % of control | endpoint: median survival time, dose: 40.0 mg/kg/injection, schedule: Q04DX003 (ip), vehicle: distilled water + Tween-80 104 % of control | endpoint: median survival time, dose: 66.5 mg/kg/injection, schedule: Q04DX003 (ip), vehicle: distilled water + Tween-80 107 % of control | endpoint: median survival time, dose: 80.0 mg/kg/injection, schedule: Q04DX003 (ip), vehicle: distilled water + Tween-80 106 % of control and 108 % of control | endpoint: median survival time, dose: 133.0 mg/kg/injection, schedule: Q04DX003 (ip), vehicle: distilled water + Tween-80 108 % of control | endpoint: median survival time, dose: 160.0 mg/kg/injection, schedule: Q04DX003 (ip), vehicle: distilled water + Tween-80 119 % of control | endpoint: median survival time, dose: 266.0 mg/kg/injection, schedule: Q04DX003 (ip), vehicle: distilled water + Tween-80 117 % of control | endpoint: median survival time, dose: 320.0 mg/kg/injection, schedule: Q04DX003 (ip), vehicle: distilled water + Tween-80 117 % of control
